Experimental data published in US20110002969A1, “COSMETIC OR PHARMACEUTICAL COMPOSITIONS COMPRISING METALLOPROTEINASE INHIBITORS” (LIPOTEC, S.A., priority 2008, published 2011).
Several values for one entry are separate records, joined by “and”; a condition that tells them apart may be missing. Equal entries are not always repeated.

Tests used:
Assay type in all cases: biochemical
type IV collagenase = assay: Collagenase inhibition trial (EnzChek Gelatinase/Collagenase Assay Kit, DQ Gelatin fluorescence); settings: peptides at 2 mg/mL, preincubated 1 hour with 0.1 unit/mL type IV collagenase; DQ Gelatin 25 μg/mL, 2 hours; normalized to medium basal values
Description: Peptides were resuspended in water in the presence of 0.5% DMSO. The trial was carried out in black microplates having 96 well and the EnzChek®Gelatinase/Collagenase Assay Kit (Molecular Probes) was used. To that end, peptides were preincubated at 2 mg/mL during 1 hour with 0.1 unit/mL of type IV collagenase at room temperature with moderate agitation, after said time fluorescein conjugated substrate (DQ™ Gelatin) was added to a final concentration of 25 μg/mL and reactions were incubated for 2 hours at room temperature with agitation and protected from light. The substrate, whose flourescence is inhibited, is […] collagenase releasing flourescent fragments, monitored by florescence with a FLUOstar galaxy reader (BMG LabTechnologies), using 485 nm filters for excitation and 520 nm for emission.
Table 2 details those peptides whose collagenase inhibition values are higher than 25%. Inhibition values were normalized with respect to medium inhibition basal values.

Human MMP-9 = Human MMP-9 (Homo sapiens, UniProt P14780); assay: Human MMP inhibition, DQ Gelatin fluorescence; settings: peptides 0.5 mM, activated protease 0.35 μg/mL, 1 hour preincubation; DQ Gelatin 25 μg/mL, 16 hours; normalized to control fluorescence; in % (unit assumed)
Description: (§1) Human MMPs were reconstructed in 50 mM Tris-HCl, 150 mM NaCl, 5 mM CaCl2, 0.2 mM NaN3 at a 7.6 pH and activated by reaction with 10 mM of 4-aminophenylmercuric acetate (dissolved in 0.01M NaOH) at a 10:1 to 37° C. ratio for 4-6 h. Activated proteases (0.35 μg/mL) were preincubated with peptides to a final 0.5 mM concentration in a 96-well black microplate for 1 hour at room temperature. After preincubation, 25 μg/mL substrate (DQ™ Gelatin) were added to the wells and samples were incubated for 16 hours at room temperature and protected against the light. Released flourescence by marked gelatin digestion was measured with an automated multiplate fluorescence reader, exciting at 485 nm and reading at 520 nm.
(§2) The results were corrected from basal flourescent value in MMP and product absence and normalized with respect to control fluorescence. Table 3 details the best inhibition values for peptides.

Human MMP-2 = target: T1, Human MMP-2 (Homo sapiens, UniProt P08253); assay: Human MMP inhibition, DQ Gelatin fluorescence; settings: peptides 0.5 mM, activated protease 0.35 μg/mL, 1 hour preincubation; DQ Gelatin 25 μg/mL, 16 hours; normalized to control fluorescence; in % (unit assumed)
T1 sequence (P08253 110-660): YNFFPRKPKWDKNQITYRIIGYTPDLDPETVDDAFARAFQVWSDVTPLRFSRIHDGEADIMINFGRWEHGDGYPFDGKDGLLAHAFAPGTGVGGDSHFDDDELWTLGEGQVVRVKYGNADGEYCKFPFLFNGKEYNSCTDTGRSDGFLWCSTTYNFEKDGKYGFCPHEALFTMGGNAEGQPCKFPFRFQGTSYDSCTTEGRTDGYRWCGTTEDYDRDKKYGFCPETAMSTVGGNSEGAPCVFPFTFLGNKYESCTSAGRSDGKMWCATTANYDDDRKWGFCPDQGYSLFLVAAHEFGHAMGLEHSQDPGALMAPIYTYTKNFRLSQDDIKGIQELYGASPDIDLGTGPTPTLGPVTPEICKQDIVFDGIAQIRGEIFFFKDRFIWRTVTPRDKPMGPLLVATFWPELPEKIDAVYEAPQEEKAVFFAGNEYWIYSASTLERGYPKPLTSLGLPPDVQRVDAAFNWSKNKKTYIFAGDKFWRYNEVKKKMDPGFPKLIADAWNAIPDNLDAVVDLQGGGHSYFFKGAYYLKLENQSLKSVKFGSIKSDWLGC
Description: as §1, §2

Human MMP-1 = target: T2, Human MMP-1 (Homo sapiens, UniProt P03956); assay: Human MMP inhibition, DQ Gelatin fluorescence; settings: peptides 0.5 mM, activated protease 0.35 μg/mL, 1 hour preincubation; DQ Gelatin 25 μg/mL, 16 hours; normalized to control fluorescence
T2 sequence (P03956 100-469): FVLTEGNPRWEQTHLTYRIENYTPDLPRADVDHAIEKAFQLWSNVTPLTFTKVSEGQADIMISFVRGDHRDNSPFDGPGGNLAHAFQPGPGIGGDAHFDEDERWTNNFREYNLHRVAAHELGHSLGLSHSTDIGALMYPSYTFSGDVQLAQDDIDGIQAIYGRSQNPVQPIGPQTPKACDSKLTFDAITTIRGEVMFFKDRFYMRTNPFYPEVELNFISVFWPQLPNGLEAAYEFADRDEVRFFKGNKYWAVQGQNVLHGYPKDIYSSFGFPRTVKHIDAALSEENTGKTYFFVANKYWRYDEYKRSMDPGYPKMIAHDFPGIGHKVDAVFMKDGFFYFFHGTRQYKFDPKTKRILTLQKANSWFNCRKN
Description: as §1, §2

Human MMP-3 = Human MMP-3 (Homo sapiens, UniProt P08254); assay: Human MMP inhibition, DQ Gelatin fluorescence; settings: peptides 0.5 mM, activated protease 0.35 μg/mL, 1 hour preincubation; DQ Gelatin 25 μg/mL, 16 hours; normalized to control fluorescence
Description: as §1, §2

Sequence of Human MMP-9 (P14780 107-707 limits assumed): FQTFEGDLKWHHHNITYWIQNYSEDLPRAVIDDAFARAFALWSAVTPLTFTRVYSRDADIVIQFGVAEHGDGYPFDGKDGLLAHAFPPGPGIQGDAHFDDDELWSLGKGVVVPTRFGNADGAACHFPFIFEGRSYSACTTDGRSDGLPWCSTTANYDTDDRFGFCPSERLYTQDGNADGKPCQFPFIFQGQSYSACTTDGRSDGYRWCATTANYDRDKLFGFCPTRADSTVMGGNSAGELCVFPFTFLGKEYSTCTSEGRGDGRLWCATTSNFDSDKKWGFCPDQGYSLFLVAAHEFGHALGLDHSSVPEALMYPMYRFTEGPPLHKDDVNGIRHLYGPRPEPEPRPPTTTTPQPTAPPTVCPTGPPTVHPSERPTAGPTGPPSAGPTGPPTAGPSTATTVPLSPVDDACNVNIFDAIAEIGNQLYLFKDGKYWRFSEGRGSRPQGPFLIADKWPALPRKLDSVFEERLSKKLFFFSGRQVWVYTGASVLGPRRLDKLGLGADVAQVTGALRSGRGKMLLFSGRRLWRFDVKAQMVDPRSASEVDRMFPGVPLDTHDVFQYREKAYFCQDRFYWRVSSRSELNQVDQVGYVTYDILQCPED
Sequence of Human MMP-3 (P08254 100-477): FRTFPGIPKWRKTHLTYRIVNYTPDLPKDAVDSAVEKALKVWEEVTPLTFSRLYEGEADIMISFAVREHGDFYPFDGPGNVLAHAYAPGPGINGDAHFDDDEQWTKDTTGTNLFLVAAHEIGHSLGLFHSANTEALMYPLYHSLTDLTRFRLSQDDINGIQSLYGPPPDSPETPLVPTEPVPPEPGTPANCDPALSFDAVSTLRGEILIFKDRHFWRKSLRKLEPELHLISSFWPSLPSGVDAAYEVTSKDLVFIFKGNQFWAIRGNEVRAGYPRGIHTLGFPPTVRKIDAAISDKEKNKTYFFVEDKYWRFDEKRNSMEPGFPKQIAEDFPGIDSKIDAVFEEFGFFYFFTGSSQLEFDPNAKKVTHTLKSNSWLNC

| Substance | Collagenase activity inhibition percentage (type IV collagenase) | MMP-9 inhibition value (Human MMP-9) | MMP-2 inhibition value (Human MMP-2) | MMP-1 inhibition value (Human MMP-1) | MMP-3 inhibition value (Human MMP-3) |
| --- | --- | --- | --- | --- | --- |
| Ac-L-Ara-L-His-L-His-L-Cit-CONH-(CH2)15-CH3 | 55.4% | – | – | – | – |
| Ac-L-Arg-L-Asn-L-Arg-L-Cit-OH | 58.9% | 69.5 and 89.6 | 78.7 and 95.3 | – | – |
| Ac-L-Arg-L-Asn-L-His-L-Cit-CONH-(CH2)15-CH3 | 26.8% | – | – | – | – |
| Ac-L-Arg-L-His-L-Arg-L-Cit-OH | 60.5% | – | – | – | – |
| Ac-L-Arg-L-His-L-His-L-Cit-OH | 60.6% | 63.1 | 101.4 | 34.7% | 39.1% |
| H-L-Arg-L-Asn-L-His-L-Cit-OH | 26.8% | – | – | – | – |
| Palm-L-Arg-L-Asn-L-Arg-L-Cit-NH2 | 31.3% | – | – | – | – |
| Palm-L-Arg-L-His-L-His-L-Cit-NH2 | 36.7% | – | – | – | – |
